Consider one molecule from publication PMC4986129, “A Peroxidase-linked Spectrophotometric Assay for the Detection of Monoamine Oxidase Inhibitors” (Iranian Journal of Pharmaceutical Research : IJPR, 2016).

The test addresses T1, MAO-B (Rattus norvegicus, UniProt P19643).
T1 construct: gene Maob
T1 sequence (P19643 2-520): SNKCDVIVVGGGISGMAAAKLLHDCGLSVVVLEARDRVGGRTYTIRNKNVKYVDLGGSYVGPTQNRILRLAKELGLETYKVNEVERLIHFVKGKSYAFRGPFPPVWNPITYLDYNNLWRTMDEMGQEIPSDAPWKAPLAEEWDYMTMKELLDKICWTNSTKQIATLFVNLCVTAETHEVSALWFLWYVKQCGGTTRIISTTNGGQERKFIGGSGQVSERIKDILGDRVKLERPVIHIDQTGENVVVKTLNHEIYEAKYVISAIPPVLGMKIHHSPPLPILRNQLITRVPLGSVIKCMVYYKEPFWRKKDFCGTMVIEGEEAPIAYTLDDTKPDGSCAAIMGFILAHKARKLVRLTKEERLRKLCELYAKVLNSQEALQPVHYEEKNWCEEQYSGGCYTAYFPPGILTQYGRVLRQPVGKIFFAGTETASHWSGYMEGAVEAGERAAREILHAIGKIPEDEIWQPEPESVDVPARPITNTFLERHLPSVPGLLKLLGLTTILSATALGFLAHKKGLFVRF
The experiment in a line: peroxidase-linked spectrophotometric assay, crude rat liver mitochondria with MAO-A blocked by clorgyline. The class given is biochemical.

`C#CCN(C)Cc1ccccc1` [pargyline] registered a half-inhibitory concentration (IC50) of 13.4 ± 0.16 nM.

Broadly, the IC50 is the concentration that inhibits the measured activity by half. High values mean lower potency, low ones higher potency.
